Laboratory results reported in patent publication US20070238158A1, “Method for enhancing enzyme activity at elevated temperature” (The Institute of Physical and Chemical Research, priority 1996, published 2007).

Tests used:
Type in all cases: biochemical
[1] = biological target: T1, reverse transcriptase Superscript II (Moloney murine leukemia virus, UniProt P03355, D1183G/D1242N/E1221Q); assay: Reverse transcription activity of Superscript II at elevated temperature (cDNA synthesis from in vitro transcribed RNA, denaturing agarose electrophoresis, autoradiography); settings: for electrophoretic pattern: full length cDNAs versus short products from prematurely terminated synthesis: reaction at 60° C., 20% of the substance and 20% glycerol in buffer (Lane 3 condition)
T1 construct: Superscript II is known as a reverse transcriptase (RNA-dependent DNA polymerase)
Procedure: To examine reverse transcription activity of Superscript II at an elevated temperature, cDNAs were synthesized using RNAs transcribed in vitro by T7 RNA polymerase as template and the products were evaluated. By using RNAs as a template transcribed in vitro and evaluating the products by electrophoresis, reverse transcription efficiencies of the samples can be compared with one another and thereby non-specific transcription termination which leads to premature termination of reverse transcription and/or reduction of reaction efficiency can be evaluated. The template RNAs were prepared by transcribing pBluescript II SK, which had been cleaved into a linear form with a restriction enzyme NotI, with T7 RNA polymerase in vitro. This reaction was initiated from T7 promoter described in the instruction of pBluescript II SK.
As a control, the following standard buffer condition was used: 50 mM Tris-HCl, pH 8.3, 75 mM KCl, 3 mM MgCl2, 10 mM dithiothreitol, each 0.75 mM of dNTPs (dATP, dGTP, dCTP and dTTP).
In the above standard buffer condition, 1 μg of template RNA, 400 ng of primer (20mer SK primer, […]) and 200 units of Superscript II were prepared and the final volume was adjusted to 20 μl. 0.2 μl of [α-^32P] dGTP was used for labeling of reverse transcription products. The RNA and the primer were incubated at 65° C. before the other substrates were added. Then, the reaction was performed at 42° C. for 1 hour. The reaction products were subjected to denatured agarose electrophoresis and electrophoretic patterns were examined by autoradiography to evaluate recoveries of full length cDNAs and rates of short products obtained from incomplete elongation. The results are shown in Lane 1 of FIG. 1.
The following buffer condition for reverse transcription was used to verify that addition of oligosaccharide stabilizes the enzyme reaction: 50 mM Tris-HCl, pH 8.3, 75 mM KCl, 3 mM MgCl2, 10 mM dithiothreitol, each 0.75 mM of dNTPs (dATP, dGTP, dCTP, dTTP), 20% (w/v) trehalose and 20% (v/v) glycerol.
1 μg of template RNA, 400 ng of primer (20 mer SK primer) and 200 units of Superscript II were reacted in 24 μl of aqueous solution under the above buffer condition. 0.2 μl of [α-^32P] dGTP was used for labeling of reverse transcription products. […] The primer and the template RNAs were annealed at 37° C. for 2 minutes and the enzyme activity was measured at 60° C.
The reaction products were subjected to denaturing agarose electrophoresis as described above, and electrophoretic patterns were examined by autoradiography to evaluate recoveries of full length cDNAs and rates of short products obtained from incomplete elongation.

restriction enzyme Sty I = assay: Sty I restriction enzyme digestion of λ DNA at 37-60° C. (agarose gel, image analysis of 1 kbp band); settings: suitable concentration; betaine 0-0.6M or sarcosine 0-3.6M; 37, 45, 50, 55 or 60° C. for 1 hour
Procedure: Reaction solutions (20 μl each) containing a restriction enzyme, Sty I 0.5 units, its substrate, λ DNA 0.5 μg and betaine 0-0.6M or sarcosine 0-3.6M were incubated at 37, 45, 50, 55 or 60° C. for 1 hour. In order to prevent initiation of enzyme reaction before the incubation, the samples were quickly prepared on ice. Upon incubation, 0.25% bromophenol blue, 0.26% XC (xylene cyanol), 30% glycerol and 120 mM EDTA (4 μl) was added to the reaction solution to terminate the reaction. The resulting solution was heated at […] for 5 minutes to melt cos sites and subjected to electrophoresis using 0.8% agarose gel containing 0.05% EtBr.
After electrophoresis, image analysis of the gels was conducted. Enzyme activity was represented by comparing strength of bands appeared at 1 kbp (with arrow). Regarding the samples using betaine, the standard (100) is the band strength obtained from the sample using 0 M of betaine and incubated at 37° C. Regarding the samples using sarcosine, the standard (100) is the band strength obtained from the sample using 0 M of sarcosine and incubated at 37° C.

[2] = biological target: T1, reverse transcriptase Superscript II; assay: Reverse transcription activity of Superscript II at elevated temperature (cDNA synthesis from in vitro transcribed RNA, denaturing agarose electrophoresis, autoradiography)

Compound | electrophoretic pattern: full length cDNAs versus short products from prematurely terminated synthesis [1] | other results
OC[C@@H](O)C(O)[C@H](O)CO [arabitol] | the amount of products obtained from prematurely terminated synthesis became very small and full length products were synthesized | 
CNCC(=O)O [sarcosine] |  | thermal activation of restriction enzyme (relative activity of Sty I) (restriction enzyme Sty I): thermally activated
OC[C@H]1O[C@H](O[C@H]2O[C@H](CO)[C@@H](O)[C@H](O)[C@H]2O)[C@H](O)[C@@H](O)[C@@H]1O [trehalose] | the amount of products obtained from prematurely terminated synthesis became very small and full length products were synthesized | Superscript II activity compared with control reaction in standard buffer ([2]; normal temperature (42° C.), 20% (w/v) trehalose and 20% (v/v) glycerol): higher activity than the control reaction; electrophoretic pattern: products from premature termination of reverse transcription ([2]; reaction at 42° C., 20% trehalose and 20% glycerol (Lane 2)): products resulted from premature termination as mentioned above were also observed
O=C(CO)[C@@H](O)[C@H](O)[C@H](O)CO [levulose] | the amount of products obtained from prematurely terminated synthesis became very small and full length products were synthesized | 
OC[C@H]1O[C@H](O[C@H]2[C@H](O)[C@@H](O)C(O)O[C@@H]2CO)[C@H](O)[C@@H](O)[C@@H]1O (mixture of isomers) [maltose] | the amount of products obtained from prematurely terminated synthesis became very small and full length products were synthesized | 
C[N+](C)(C)CC(=O)O [betaine] | the amount of products obtained from prematurely terminated synthesis became very small and full length products were synthesized | thermal activation of restriction enzyme (relative activity of Sty I) (restriction enzyme Sty I): thermally activated
OC[C@@H](O)[C@@H](O)[C@H](O)[C@@H](O)CO [sorbitol] | the amount of products obtained from prematurely terminated synthesis became very small and full length products were synthesized | 
OC[C@@H](O)[C@H](O)[C@@H](O)CO [xylitol] | the amount of products obtained from prematurely terminated synthesis became very small and full length products were synthesized | 
Triton X100 |  | amount of incomplete reverse transcription products when added to the Lane 3 condition ([1]; 60° C., 0.05% Triton X100 plus 20% trehalose and 20% glycerol (Lane 4)): further reduced; effect on enzyme activity when added to the Lane 3 condition ([1]; 60° C., additive plus 20% trehalose and 20% glycerol, BSA 0.125 μg/μl (Lane 5), Triton X100 0.05% (Lane 4)): the whole activity of the reverse transcriptase was slightly reduced
